Measured values as given in patent US20260028354A1, “TETRAHYDRONAPHTHALENE DERIVATIVES AS ESTROGEN RECEPTOR DEGRADERS” (REGENT OF THE UNIVERSITY OF MICHIGAN, priority 2022, published 2026).
Read-outs that look alike come from different tables or passages of the source.

Key:
[1] = Cell growth assay (WST-8) for "B" compounds; format: cell-based; details: T47D, read-out: Cell growth Inhibition in T47D cell line IC50
In short: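 Cells seeded at 1500/well overnight, then exposed to compounds for 4 days. 10% WST-8 added for 2.5 h at 37 °C and absorbance read at 450 nm. Growth given as absorbance relative to vehicle control, from three repeats.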

ER = ER (Homo sapiens (Human), UniProt P03372); test: In-cell western blot analysis of ER for "B" compounds; format: cell-based; details: 16 hours, read-out: ICW DC50
Procedure: R^T 2h, gentle shaking. Negative control: cells plus secondary antibodies (no primary antibodies); e, wash x 4 with PBS+0.05-0.1% Tween 20, gentel shaking; f, anti-rabbit-680 and anti-mouse-800 (both 1:1000 in LiCor block+0.05% Tween20, R^T 1h, gentle shaking, no light. LI-COR: 0.2% to reduce background; g, wash×4 with PBS+0.05% Tween 20, gental shaking; h, add 100 μL or 25 μL of PBS to each well and read on CLX plate reader. The relative ER percentage in treated cells were obtained by comparing the values of treated wells to those in untreated and DMSO-treated wells as 100%.

ER, sequence (P03372 whole entry): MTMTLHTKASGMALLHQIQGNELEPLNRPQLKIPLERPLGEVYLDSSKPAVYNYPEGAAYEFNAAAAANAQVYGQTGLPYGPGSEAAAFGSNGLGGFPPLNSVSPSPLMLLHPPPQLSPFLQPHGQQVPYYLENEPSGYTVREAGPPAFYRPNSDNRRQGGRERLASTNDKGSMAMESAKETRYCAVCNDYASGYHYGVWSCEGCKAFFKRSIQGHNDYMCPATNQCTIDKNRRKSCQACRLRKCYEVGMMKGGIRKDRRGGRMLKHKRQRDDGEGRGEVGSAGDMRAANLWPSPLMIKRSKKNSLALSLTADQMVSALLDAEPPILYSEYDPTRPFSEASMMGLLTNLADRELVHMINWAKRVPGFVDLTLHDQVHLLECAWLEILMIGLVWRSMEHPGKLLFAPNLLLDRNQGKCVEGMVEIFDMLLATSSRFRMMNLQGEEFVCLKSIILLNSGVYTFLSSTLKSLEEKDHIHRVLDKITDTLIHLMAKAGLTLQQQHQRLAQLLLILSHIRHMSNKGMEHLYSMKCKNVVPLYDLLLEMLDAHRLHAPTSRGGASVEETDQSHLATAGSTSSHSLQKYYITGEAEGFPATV

For `O=C1CCC(N2Cc3c(ccc4c3OCC43CCN(CC4CCC5(CC4)CN(c4ccc([C@@H]6c7ccc(O)cc7CC[C@@H]6c6ccccc6)cc4)C5)CC3)C2=O)C(=O)N1` (stereo partly drawn) [Compound B228, 3-(1′-((2-(4-((1R,2S)-6-hydroxy-2-phenyl-1,2,3,4-tetrahydronaphthalen-1-yl)phenyl)-2-azaspiro[3.5]nonan-7-yl)methyl)-6-oxo-6,8-dihydro-2H,7H-spiro[furo[2,3-e]isoindole-3,4′-piperidin]-7-yl)piperidine-2,6-dione], the IC50 [1] was 1 to 10 nM and the DC50 (ER) was < 10 nM.
For `O=C1CCC(N2Cc3cc4c(cc3C2=O)OC[C@@H]2C[C@H](NCC3CCN(c5ccc([C@@H]6c7ccc(O)cc7CC[C@@H]6c6ccccc6)cc5)CC3)CN42)C(=O)N1` (stereo partly drawn) [Compound B307, 3-((2S,3aS)-2-(((1-(4-((1R,2S)-6-hydroxy-2-phenyl-1,2,3,4-tetrahydronaphthalen-1-yl)phenyl)piperidin-4-yl)methyl)amino)-7-oxo-2,3,3a,4,7,9-hexahydro-1H,8H-pyrrolo[1′,2′:4,5][1,4]oxazino[2,3-f]isoindol-8-yl)piperidine-2,6-dione], the IC50 ([1]; T47D cell line) was 1 to 10 nM and the DC50 (ER) was > 100 nM.
With `O=C1CCC(N2Cc3c(ccc4c3OCC43CCN(CC4COC5(CCN(c6ccc([C@@H]7c8ccc(O)cc8CC[C@@H]7c7ccccc7)cc6)CC5)O4)CC3)C2=O)C(=O)N1` (stereo partly drawn) [Compound B350, 3-(1′-((8-(4-((1R,2S)-6-hydroxy-2-phenyl-1,2,3,4-tetrahydronaphthalen-1-yl)phenyl)-1,4-dioxa-8-azaspiro[4.5]decan-2-yl)methyl)-6-oxo-6,8-dihydro-2H,7H-spiro[furo[2,3-e]isoindole-3,4′-piperidin]-7-yl)piperidine-2,6-dione] the IC50 [1] was > 10 nM and the DC50 (ER) was 10 to 100 nM.
For `O=C1CCC(N2Cc3cc4c(cc3C2=O)OC[C@@H]2CN(CC3CCC5(CCN(c6ccc([C@@H]7c8ccc(O)cc8CC[C@@H]7c7ccccc7)cc6)CC5)O3)CCN42)C(=O)N1` (stereo partly drawn) [Compound B177, 3-((4aS)-3-((8-(4-((1R,2S)-6-hydroxy-2-phenyl-1,2,3,4-tetrahydronaphthalen-1-yl)phenyl)-1-oxa-8-azaspiro[4.5]decan-2-yl)methyl)-8-oxo-1,2,3,4,4a,5,8,10-octahydro-9H-pyrazino[1′,2′: 4,5][1,4]oxazino[2,3-f]isoindol-9-yl)piperidine-2,6-dione], the IC50 ([1]; T47D cell line) was 1 to 10 nM and the DC50 (ER) was > 100 nM.
In the case of `O=C1CCC(N2Cc3cc4c(cc3C2=O)OC[C@@H]2CN(CC(=O)N3CC(Oc5ccc([C@@H]6c7ccc(O)cc7CC[C@@H]6c6ccccc6)cc5)C3)CCN42)C(=O)N1` (stereo partly drawn) [Compound B150, 3-((S)-3-(2-(3-(4-((1R,2S)-6-hydroxy-2-phenyl-1,2,3,4-tetrahydronaphthalen-1-yl)phenoxy)azetidin-1-yl)-2-oxoethyl)-8-oxo-1,2,3,4,4a,5,8,10-octahydro-9H-pyrazino[1′,2′:4,5][1,4]oxazino[2,3-f]isoindol-9-yl)piperidine-2,6-dione], the IC50 ([1]; T47D cell line) is reported as < 1 nM and the DC50 (ER) is reported as < 10 nM.
With `O=C1CC[C@H](N2Cc3c(ccc4c3OC[C@H]3CN(CC5CCC6(CN(c7ccc([C@@H]8c9ccc(O)cc9CC[C@@H]8c8ccccc8)cc7)C6)OC5)CCN43)C2=O)C(=O)N1` (stereo partly drawn) [Compound B333, (3S)-3-((5aR)-7-((2-(4-((1R,2S)-6-hydroxy-2-phenyl-1,2,3,4-tetrahydronaphthalen-1-yl)phenyl)-5-oxa-2-azaspiro[3.5]nonan-7-yl)methyl)-1-oxo-1,3,5,5a,6,7,8,9-octahydro-2H-pyrazino[1′,2′:4,5][1,4]oxazino[2,3-e]isoindol-2-yl)piperidine-2,6-dione] the IC50 ([1]; T47D cell line) was < 1 nM and the DC50 (ER) was < 10 nM.
For `O=C1CC[C@H](NC(=O)c2ccc(N3CCN(CC4CCN(c5ccc([C@@H]6c7ccc(O)cc7CC[C@@H]6c6ccccc6)cc5)CC4)CC3)cc2F)C(=O)N1` [Compound B317, N-((S)-2,6-dioxopiperidin-3-yl)-2-fluoro-4-(4-((1-(4-((1R,2S)-6-hydroxy-2-phenyl-1,2,3,4-tetrahydronaphthalen-1-yl)phenyl)piperidin-4-yl)methyl)piperazin-1-yl)benzamide], the IC50 ([1]; T47D cell line) was 1 to 10 nM and the DC50 (ER) was > 100 nM.
For `O=C1CCC(N2Cc3cc4c(cc3C2=O)OC[C@@H]2CN(C(=O)CN3CCC5(C3)CN(c3ccc([C@@H]6c7ccc(O)cc7CC[C@@H]6c6ccccc6)cc3)C5)CCN42)C(=O)N1` (stereo partly drawn) [Compound B154, 3-((S)-3-(2-(2-(4-((1R,2S)-6-hydroxy-2-phenyl-1,2,3,4-tetrahydronaphthalen-1-yl)phenyl)-2,6-diazaspiro[3.4]octan-6-yl)acetyl)-8-oxo-1,2,3,4,4a,5,8,10-octahydro-9H-pyrazino[1′,2′:4,5][1,4]oxazino[2,3-f]isoindol-9-yl)piperidine-2,6-dione], the IC50 ([1]; T47D cell line) was < 1 nM and the DC50 (ER) was < 10 nM.
Work on `O=C1CCC(N2Cc3cc4c(cc3C2=O)OC[C@@H]2CN(CC3COC5(CN(c6ccc([C@@H]7c8ccc(O)cc8CC[C@@H]7c7ccccc7)cc6)C5)OC3)CCN42)C(=O)N1` (stereo partly drawn) [Compound B328, 3-((S)-3-((2-(4-((1R,2S)-6-hydroxy-2-phenyl-1,2,3,4-tetrahydronaphthalen-1-yl)phenyl)-5,9-dioxa-2-azaspiro[3.5]nonan-7-yl)methyl)-8-oxo-1,2,3,4,4a,5,8,10-octahydro-9H-pyrazino[1′,2′:4,5][1,4]oxazino[2,3-f]isoindol-9-yl)piperidine-2,6-dione] yielded an IC50 ([1]; T47D cell line) of 1 to 10 nM and a DC50 (ER) of 10 to 100 nM.
For `CCN(CC1CCN(c2ccc([C@@H]3c4ccc(O)cc4CC[C@@H]3c3ccccc3)cc2)CC1)[C@H]1C[C@H]2COc3cc4c(cc3N2C1)CN(C1CCC(=O)NC1=O)C4=O` (stereo partly drawn) [Compound B311, 3-((2S,3aS)-2-(ethyl((1-(4-((1R,2S)-6-hydroxy-2-phenyl-1,2,3,4-tetrahydronaphthalen-1-yl)phenyl)piperidin-4-yl)methyl)amino)-7-oxo-2,3,3a,4,7,9-hexahydro-1H,8H-pyrrolo[1′,2′:4,5][1,4]oxazino[2,3-f]isoindol-8-yl)piperidine-2,6-dione], the IC50 ([1]; T47D cell line) was < 1 nM and the DC50 (ER) was > 100 nM.
Work on `O=C1CC[C@H](NC(=O)c2ccc3c(n2)OC[C@H]2CN(CC4CC5(CCN(c6ccc([C@@H]7c8ccc(O)cc8CC[C@@H]7c7ccccc7)cc6)CC5)C4)CCN32)C(=O)N1` [Compound B225, (R)-N-((S)-2,6-dioxopiperidin-3-yl)-3-((7-(4-((1R,2S)-6-hydroxy-2-phenyl-1,2,3,4-tetrahydronaphthalen-1-yl)phenyl)-7-azaspiro[3.5]nonan-2-yl)methyl)-1,2,3,4,4a,5-hexahydropyrazino[1,2-d]pyrido[2,3-b][1,4]oxazine-8-carboxamide] yielded an IC50 ([1]; T47D cell line) of 1 to 10 nM and a DC50 (ER) of 10 to 100 nM.
With `O=C1CCC(Nc2ccc(C3CCN(CC4COC5(CCN(c6ccc([C@@H]7c8ccc(O)cc8CC[C@@H]7c7ccccc7)cc6)CC5)OC4)CC3)cc2)C(=O)N1` (stereo partly drawn) [Compound B345, 3-((4-(1-((9-(4-((1R,2S)-6-hydroxy-2-phenyl-1,2,3,4-tetrahydronaphthalen-1-yl)phenyl)-1,5-dioxa-9-azaspiro[5.5]undecan-3-yl)methyl)piperidin-4-yl)phenyl)amino)piperidine-2,6-dione] the IC50 ([1]; T47D cell line) was 1 to 10 nM and the DC50 (ER) was > 100 nM.
